Work on `Nc1nc(N)nc(C(Cl)(Cl)Cl)n1` yielded a logP of 1.24.
`CSc1nc(N)nc(C(Cl)(Cl)Cl)n1` gave a logP of 3.12.
Work on `ClC(Cl)(Cl)c1nc(Nc2ccccc2)nc(C(Cl)(Cl)Cl)n1` yielded a logP of 4.39.
`CNc1nc(C(Cl)(Cl)Cl)nc(C(Cl)(Cl)Cl)n1` gave a logP of 3.23.
With `Cc1nc(Nc2ccccc2)nc(C(Cl)(Cl)Cl)n1` the logP was 3.41.
In the case of `COc1nc(C(Cl)(Cl)Cl)nc(C(Cl)(Cl)Cl)n1`, the logP is reported as 3.64.
For `CCCNc1nc(C)nc(C(Cl)(Cl)Cl)n1`, the logP was 3.29.
For `CN(C)c1nc(C(Cl)(Cl)Cl)nc(C(Cl)(Cl)Cl)n1`, the logP was 4.94.
In the case of `O=C1OC(=Nc2ccc(Cl)cc2)C2=C1CCCC2`, the logP is reported as 3.81.
With `CSc1nc(C(Cl)(Cl)Cl)nc(C(Cl)(Cl)Cl)n1` the logP was 4.42.
`Nc1nc(C(Cl)(Cl)Cl)nc(C(Cl)(Cl)Cl)n1` gave a logP of 2.48.
For `ClC(Cl)(Cl)c1nc(C(Cl)(Cl)Cl)nc(C(Cl)(Cl)Cl)n1`, the logP was 3.75.
Work on `ClC(Cl)(Cl)c1nc(NCc2ccccc2)nc(C(Cl)(Cl)Cl)n1` yielded a logP of 4.93.
`Cc1nc(C(Cl)(Cl)Cl)nc(C(Cl)(Cl)Cl)n1` gave a logP of 4.1.
`CCCNc1nc(C(Cl)(Cl)Cl)nc(C(Cl)(Cl)Cl)n1` showed a logP of 4.09.
In the case of `O=C1C2=C(CCCC2)C(=O)N1c1ccc(Cl)cc1`, the logP is reported as 3.26.
Work on `Cc1nc(N(C)C)nc(C(Cl)(Cl)Cl)n1` yielded a logP of 3.78.
`CNc1nc(C)nc(C(Cl)(Cl)Cl)n1` gave a logP of 2.39.
`Cc1nc(NCc2ccccc2)nc(C(Cl)(Cl)Cl)n1` gave a logP of 3.86.
With `Cc1nc(N)nc(C(Cl)(Cl)Cl)n1` the logP was 1.77.
With `COc1nc(N)nc(C(Cl)(Cl)Cl)n1` the logP was 2.39.
